# System: male CD1 mice
# Assay: Luciferase production in the lung after intratracheal FFL mRNA-LNP
# Type: in vivo, mouse
# Conditions: for potency as determined by the average radiance detected in mouse lungs: FFL mRNA-LNP, intratracheal, about 5 hours post-dose; for performance in liposomes administered through pulmonary delivery via nebulization: mouse, in vivo
# Description: About 150 cationic lipids were tested. (FIG. 7). Each cationic lipid was used in preparing lipid nanoparticles encapsulating mRNA encoding firefly luciferase protein (FFL mRNA) according to methods known in the art. For example, suitable methods for mRNA encapsulation include methods described in International Publication Nos. WO2016/004318 and WO 2018/089801, which is hereby incorporated by reference in its entirety. The tested lipid nanoparticles comprised a lipid component consisting of a cationic lipid, a non-cationic lipid (DOPE), a PEG-modified lipid (DMG-PEG2K), and optionally cholesterol.
# Lipid nanoparticle formulations comprising FFL mRNA were administered to male CD1 mice by a single intratracheal administration via nebulization using a Microsprayer®. At approximately 5 hours post-dose, the animals were dosed with luciferin by intraperitoneal injection and all animals were imaged using an IVIS imaging system to measure luciferase production in the lung. […] Some cationic lipids remarkably had greater than 50-fold increase in pulmonary protein expression as compared to other cationic lipids.
Compound,"historical radiance/expression of pulmonary-delivered FFL mRNA LNP (mice, nebulized FFL mRNA in LNP with this cationic lipid)",potency as determined by the average radiance detected in mouse lungs,performance in liposomes administered through pulmonary delivery via nebulization
"CC(C)CCCC(C)C1CCC2C3CC=C4CC(OC(=O)CCc5cnc[nH]5)CCC4(C)C3CCC12C (stereo not shown) [ICE, imidazole cholesterol ester, reference compound]",around 10^4 p/s/cm^2sr,–,–
CCCCC/C=C\C/C=C\CCCCCCCC(=O)OCC(COC(=O)CCCCCCC/C=C\C/C=C\CCCCC)(COC(=O)CCCCCCC/C=C\C/C=C\CCCCC)NCCS(=O)(=O)NCCCN(C)C [GL-TES-SA-DMP-E18-2],–,particularly high potency,performed particularly well
CCCCCCCCC(O)CN(CCCC(=O)OCCN1CC(C)N(CCOC(=O)CCCN(CC(O)CCCCCCCC)CC(O)CCCCCCCC)CC1C)CC(O)CCCCCCCC (stereo not shown) [HEP-E3-E10],–,particularly high potency,performed particularly well
CCCCCCCCCCCCCCOC(=O)CC(CC(=O)OCCCCCCCCCCCCCC)(OC(=O)CCN(C)C)C(=O)OCCCCCCCCCCCCCC [TL1-04D-DMA],–,particularly high potency,performed particularly well
CCCCCCCCC(O)CN(CCCCC(=O)OCCN1CC(C)N(CCOC(=O)CCCCN(CC(O)CCCCCCCC)CC(O)CCCCCCCC)CC1C)CC(O)CCCCCCCC (stereo not shown) [HEP-E4-E10],–,particularly high potency,performed particularly well
"CCCCCCCCOC(=O)CC(CC(=O)OCCCCCCCC)(OC(=O)CCN(C)C)C(=O)OCCCCCCCC [TL1-01D-DMA, trioctyl 2-((3-(dimethylamino)propanoyl)oxy)propane-1,2,3-tricarboxylate]",–,particularly high potency,performed particularly well
"CCCCC/C=C\C/C=C\CCCCCCCC(=O)OCC(COC(=O)CCCCCCC/C=C\C/C=C\CCCCC)(COC(=O)CCCCCCC/C=C\C/C=C\CCCCC)NCCS(=O)(=O)NCCN(C)C [GL-TES-SA-DME-E18-2, 2-((2-(N-(2-(dimethylamino)ethyl)sulfamoyl)ethyl)amino)-2-((((9Z,12Z)-octadeca-9,12-dienoyl)oxy)methyl)propane-1,3-diyl (9Z,9′Z,12Z,12′Z)-bis(octadeca-9,12-dienoate)]",–,particularly high potency,performed particularly well

# From US12605399B2, “Compositions for CFTR MRNA therapy” (TRANSLATE BIO, INC., priority 2020, dated 2026)
